Measured values as given in ChEMBL document CHEMBL1152085, “Novel 3-deoxy-3-descladinosyl-6-O-methyl erythromycin a analogues. Synthesis and in vitro activity” (1997).
Values after ≈ are worked out from the molar mass of the structure shown.

Experiments:
Assay type in all cases: functional
[1] = tested on: Streptococcus equinus; test: Tested in vitro for minimum inhibitory concentration to produce antibacterial activity against Streptococcus bovis A-5169 in presence of erythromycin A
[2] = tested on: Staphylococcus aureus; test: Tested in vitro for minimum inhibitory concentration to produce antibacterial activity against Staphylococcus aureus A5177
[3] = tested on: Streptococcus pyogenes; test: Tested in vitro for minimum inhibitory concentration to produce antibacterial activity against Streptococcus pyogenes PIU 2548 in presence of erythromycin A
[4] = tested on: Staphylococcus aureus; test: Tested in vitro for minimum inhibitory concentration to produce antibacterial activity against Staphylococcus aureus A-5278
[5] = tested on: Escherichia coli; test: Tested in vitro for minimum inhibitory concentration to produce antibacterial activity against Escherichia coli JUHL in presence of erythromycin A
[6] = tested on: Staphylococcus aureus; test: Tested in vitro for minimum inhibitory concentration to produce antibacterial activity against Staphylococcus aureus 1775 in presence of erythromycin A
[7] = tested on: Staphylococcus aureus; test: Tested in vitro for minimum inhibitory concentration to produce antibacterial activity against Staphylococcus aureus NCTC-10649M
[8] = tested on: Staphylococcus aureus; test: Tested in vitro for minimum inhibitory concentration to produce antibacterial activity against Staphylococcus aureus ATCC 6538P in presence of erythromycin A
[9] = tested on: Streptococcus pyogenes; test: Tested in vitro for minimum inhibitory concentration to produce antibacterial activity against Streptococcus pyogenes PIU 2548
[10] = tested on: Escherichia coli; test: Tested in vitro for minimum inhibitory concentration to produce antibacterial activity against Escherichia coli SS
[11] = tested on: Escherichia coli; test: Tested in vitro for minimum inhibitory concentration to produce antibacterial activity against Escherichia coli SS in presence of erythromycin A
[12] = tested on: Staphylococcus epidermidis; test: Tested in vitro for minimum inhibitory concentration to produce antibacterial activity against Staphylococcus epidermidis 3519
[13] = tested on: Staphylococcus aureus; test: Tested in vitro for minimum inhibitory concentration to produce antibacterial activity against Staphylococcus aureus 1775
[14] = tested on: Staphylococcus aureus; test: Tested in vitro for minimum inhibitory concentration to produce antibacterial activity against Staphylococcus aureus CMX 642A in presence of erythromycin A
[15] = tested on: Streptococcus pyogenes; test: Tested in vitro for minimum inhibitory concentration to produce antibacterial activity against Streptococcus pyogenes EES61
[16] = tested on: Enterococcus faecium; test: Tested in vitro for minimum inhibitory concentration to produce antibacterial activity against Enterococcus faecium ATCC 8043
[17] = tested on: Streptococcus agalactiae; test: Tested in vitro for minimum inhibitory concentration to produce antibacterial activity against Streptococcus agalactiae CMX 508 in presence of erythromycin A
[18] = tested on: Streptococcus equinus; test: Tested in vitro for minimum inhibitory concentration to produce antibacterial activity against Streptococcus bovis A-5169
[19] = tested on: Staphylococcus aureus; test: Tested in vitro for minimum inhibitory concentration to produce antibacterial activity against Staphylococcus aureus A-5278 in presence of erythromycin A
[20] = tested on: Escherichia coli; test: Tested in vitro for minimum inhibitory concentration to produce antibacterial activity against Escherichia coli JUHL
[21] = tested on: Staphylococcus epidermidis; test: Tested in vitro for minimum inhibitory concentration to produce antibacterial activity against Staphylococcus epidermidis 3519 in presence of erythromycin A
[22] = tested on: Staphylococcus aureus; test: Tested in vitro for minimum inhibitory concentration to produce antibacterial activity against Staphylococcus aureus CMX 642A
[23] = tested on: Enterococcus faecium; test: Tested in vitro for minimum inhibitory concentration to produce antibacterial activity against Enterococcus faecium ATCC 8043 in presence of erythromycin A
[24] = tested on: Streptococcus pyogenes; test: Tested in vitro for minimum inhibitory concentration to produce antibacterial activity against Streptococcus pyogenes EES61 in presence of erythromycin A
[25] = tested on: Staphylococcus aureus; test: Tested in vitro for minimum inhibitory concentration to produce antibacterial activity against Staphylococcus aureus CMX 553
[26] = tested on: Staphylococcus aureus; test: Tested in vitro for minimum inhibitory concentration to produce antibacterial activity against Staphylococcus aureus ATCC 6538P
[27] = tested on: Staphylococcus aureus; test: Tested in vitro for minimum inhibitory concentration to produce antibacterial activity against Staphylococcus aureus CMX 553 in presence of erythromycin A
[28] = tested on: Staphylococcus aureus; test: Tested in vitro for minimum inhibitory concentration to produce antibacterial activity against Staphylococcus aureus A5177 in presence of erythromycin A
[29] = tested on: Staphylococcus aureus; test: Tested in vitro for minimum inhibitory concentration to produce antibacterial activity against Staphylococcus aureus NCTC-10649M in presence of erythromycin A
[30] = tested on: Streptococcus agalactiae; test: Tested in vitro for minimum inhibitory concentration to produce antibacterial activity against Streptococcus agalactiae CMX 508
[31] = tested on: Streptococcus pyogenes; test: Tested in vitro for minimum inhibitory concentration to produce antibacterial activity against Streptococcus pyogenes 930 in presence of erythromycin A
[32] = tested on: Streptococcus pyogenes; test: Tested in vitro for minimum inhibitory concentration to produce antibacterial activity against Streptococcus pyogenes 930

Row | Structure (SMILES) | MIC [1] | MIC [2] | MIC [3] | MIC [4] | MIC [6] | MIC [7] | MIC [8] | MIC [9] | MIC [12] | MIC [13] | MIC [14] | MIC [15] | MIC [16] | MIC [17] | MIC [18] | MIC [19] | MIC [21] | MIC [22] | MIC [23] | MIC [24] | further results
1 | CC[C@H]1OC(=O)[C@H](C)C[C@H](C)[C@@H](O[C@@H]2O[C@H](C)C[C@H](N(C)C)[C@H]2O)[C@](C)(OC)C[C@@H](C)C(=O)[C@H](C)[C@H]2N(CCCCc3ccccc3)C(=O)O[C@]12C | 0.02 µg/mL | 1.56 µg/mL (≈ 2.13 µM) | 6.2 µg/mL | 50 µg/mL (≈ 68.4 µM) | > 100 µg/mL | 1.56 µg/mL (≈ 2.13 µM) | 0.39 µg/mL | 0.2 µg/mL (≈ 0.274 µM) | 1.56 µg/mL (≈ 2.13 µM) | 50 µg/mL (≈ 68.4 µM) | 0.39 µg/mL | 0.05 µg/mL (≈ 0.0684 µM) | 0.39 µg/mL (≈ 0.534 µM) | 0.02 µg/mL | 0.02 µg/mL (≈ 0.0274 µM) | > 100 µg/mL | 0.39 µg/mL | 1.56 µg/mL (≈ 2.13 µM) | 0.1 µg/mL | 0.02 µg/mL | MIC [5]: 100 µg/mL; MIC [10]: 1.56 µg/mL (≈ 2.13 µM); MIC [11]: 0.39 µg/mL; MIC [20]: > 100 µg/mL; MIC [25]: 1.56 µg/mL (≈ 2.13 µM); MIC [26]: 1.56 µg/mL (≈ 2.13 µM); MIC [27]: 0.39 µg/mL; MIC [28]: 25 µg/mL; MIC [29]: 0.39 µg/mL; MIC [30]: 0.1 µg/mL (≈ 0.137 µM)
2 | CC[C@H]1OC(=O)[C@H](C)C(=O)[C@H](C)[C@@H](O[C@@H]2O[C@H](C)C[C@H](N(C)C)[C@H]2O)[C@](C)(OC)C[C@@H](C)C(=O)[C@H](C)[C@@H](O)[C@]1(C)O | 0.02 µg/mL | 0.2 µg/mL (≈ 0.34 µM) | 3.1 µg/mL | > 100 µg/mL | > 100 µg/mL | 0.1 µg/mL (≈ 0.17 µM) | 0.2 µg/mL | 0.3 µg/mL (≈ 0.51 µM) | 0.39 µg/mL (≈ 0.664 µM) | > 100 µg/mL | 0.2 µg/mL | 0.1 µg/mL (≈ 0.17 µM) | 0.2 µg/mL (≈ 0.34 µM) | 0.05 µg/mL | 0.05 µg/mL (≈ 0.0851 µM) | > 100 µg/mL | 0.2 µg/mL | 0.39 µg/mL (≈ 0.664 µM) | 0.05 µg/mL | 0.05 µg/mL | MIC [31]: > 100 µg/mL; MIC [5]: 50 µg/mL; MIC [32]: > 100 µg/mL; MIC [10]: 0.39 µg/mL (≈ 0.664 µM); MIC [11]: 0.2 µg/mL; MIC [20]: > 100 µg/mL; MIC [25]: 0.2 µg/mL (≈ 0.34 µM); MIC [26]: 0.2 µg/mL (≈ 0.34 µM); MIC [27]: 0.2 µg/mL; MIC [28]: 1.56 µg/mL; MIC [29]: 0.2 µg/mL; MIC [30]: 0.2 µg/mL (≈ 0.34 µM)
3 | CC[C@H]1OC(=O)[C@H](C)C[C@H](C)[C@@H](O[C@@H]2O[C@H](C)C[C@H](N(C)C)[C@H]2O)[C@](C)(OC)C[C@@H](C)C(=O)[C@H](C)[C@H]2N(CCc3ccc(Oc4ccccc4)cc3)C(=O)O[C@]12C | 0.05 µg/mL | 6.2 µg/mL (≈ 7.8 µM) | 6.2 µg/mL | 25 µg/mL (≈ 31.4 µM) | > 100 µg/mL | 6.2 µg/mL (≈ 7.8 µM) | 0.39 µg/mL | 3.1 µg/mL (≈ 3.9 µM) | 12.5 µg/mL (≈ 15.7 µM) | 25 µg/mL (≈ 31.4 µM) | 0.39 µg/mL | 1.56 µg/mL (≈ 1.96 µM) | 1.56 µg/mL (≈ 1.96 µM) | 0.05 µg/mL | 1.56 µg/mL (≈ 1.96 µM) | > 100 µg/mL | 0.39 µg/mL | 12.5 µg/mL (≈ 15.7 µM) | 0.05 µg/mL | 0.02 µg/mL | MIC [31]: > 100 µg/mL; MIC [32]: 6.2 µg/mL (≈ 7.8 µM); MIC [25]: 6.2 µg/mL (≈ 7.8 µM); MIC [26]: 12.5 µg/mL (≈ 15.7 µM); MIC [27]: 0.39 µg/mL; MIC [28]: 12.5 µg/mL; MIC [29]: 0.39 µg/mL; MIC [30]: 1.56 µg/mL (≈ 1.96 µM)
